Bounds are passed on as bounds.

Test [1] has as its system T47D (PI3Kα H1047R mutant) cells. Put plainly: CellTiter-Glo 2.0 luminescent cell viability assay, 72 hours, T47D cells. It counts as cell-based. The note with it: Homo sapiens, T47D, 72 h, T47D (PI3Kα H1047R mutant) cells, CellTiter-Glo, approximately 72 hours; read-out: T47D (H1047R mutant) Viability IC50. In short, it runs like this: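 Cells seeded at 1000 per well overnight were dosed with a 10-concentration, 1:4 series starting at 10 µM and incubated ~72 h at 37° C. Viability was read by CellTiter-Glo 2.0 luminescence after 30 min at room temperature. IC50 came from four-parameter fits of percent vehicle control.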
A general note: In ATP-based viability assays light output follows the ATP content of the culture.

For test [2], the system named is SKBR3 (PI3Kα wild type) cells. The experiment in a line: CellTiter-Glo 2.0 luminescent cell viability assay, 72 hours, SKBR3 cells. It counts as cell-based. As to conditions: Homo sapiens, SK-BR-3, 72 h, SKBR3 (PI3Kα wild type) cells, CellTiter-Glo, approximately 72 hours; read-out: SKBR3 (WT) Viability IC50. In short, it runs like this:
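Viability measured via CTG luminescence following roughly 72 hours of compound exposure at 37° C. Dosing used a 10 um starting concentration diluted 1:4 over 10 points; percent-of-vehicle data fitted with a variable-slope four-parameter model for IC50.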

`Cc1cc([C@@H](C)Nc2ccccc2C(=O)O)c2nc(N3CCNCC3)c(C#N)c(=O)n2c1` [Example 11-296, (R)-2-((1-(3-cyano-7-methyl-4-oxo-2-(piperazin-1-yl)-4H-pyrido[1,2-a]pyrimidin-9-yl)ethyl)amino)benzoic acid]: the IC50 in test [1] and in test [2] was over 10 µM throughout.
On to `Cc1cc([C@@H](C)Nc2ccccc2C(=O)O)c2nc(N3CCCC(F)(F)C3)c(C#N)c(=O)n2c1` [Example 11-297, (R)-2-((1-(3-cyano-2-(3,3-difluoropiperidin-1-yl)-7-methyl-4-oxo-4H-pyrido[1,2-a]pyrimidin-9-yl)ethyl)amino)benzoic acid], for which the IC50 in test [1] is 0.195 µM; in test [2], over 10 µM.
Consider `Cc1cc([C@@H](C)Nc2ccc(Cl)nc2C(=O)O)c2nc(N3CCC(F)(F)CC3)c(C)c(=O)n2c1` [Example 11-298, (R)-6-chloro-3-((1-(2-(4,4-difluoropiperidin-1-yl)-3,7-dimethyl-4-oxo-4H-pyrido[1,2-a]pyrimidin-9-yl)ethyl)amino)picolinic acid], for which the IC50 was 0.139 µM in test [1] and over 10 µM in test [2].
For `Cc1cc(C(C)Nc2ccccc2)c2nc(N3CCCCC3)c(C#N)c(=O)n2c1` (centres unmarked) [Example 11-299, 7-methyl-4-oxo-9-(1-(phenylamino)ethyl)-2-(piperidin-1-yl)-4H-pyrido[1,2-a]pyrimidine-3-carbonitrile] the same measures were 9.25 µM and 9.32 µM.
For `Cc1cc([C@H](C)Nc2ccccc2)c2nc(N3Cc4ccccc4C3)c(C#N)c(=O)n2c1` [Example 11-300, (S)-2-(isoindolin-2-yl)-7-methyl-4-oxo-9-(1-(phenylamino)ethyl)-4H-pyrido[1,2-a]pyrimidine-3-carbonitrile] the same measures were 3.71 µM and over 10 µM.
For `Cc1cc([C@@H](C)Nc2ccccc2)c2nc(N3Cc4ccccc4C3)c(C#N)c(=O)n2c1` [Example 11-301, (R)-2-(isoindolin-2-yl)-7-methyl-4-oxo-9-(1-(phenylamino)ethyl)-4H-pyrido[1,2-a]pyrimidine-3-carbonitrile] the same measures were 9.15 µM and 8.83 µM.
`Cc1cc(C(C)Nc2ccccc2)c2nc(N3Cc4ccccc4C3)c(C#N)c(=O)n2c1` (centres unmarked) [Example 11-302, 2-(isoindolin-2-yl)-7-methyl-4-oxo-9-(1-(phenylamino)ethyl)-4H-pyrido[1,2-a]pyrimidine-3-carbonitrile]: the half-maximal inhibitory concentration (IC50) in test [1] stood at 1.44 µM; in test [2], 8.97 µM.
For `Cc1cc([C@@H](C)Nc2ccccc2C(=O)O)c2nc(N3CCC(F)(F)CC3)c(C)c(=O)n2c1` [Example 11-303, (R)-2-((1-(2-(4,4-difluoropiperidin-1-yl)-3,7-dimethyl-4-oxo-4H-pyrido [1,2-a]pyrimidin-9-yl)ethyl)amino)benzoic acid] the same measures were 0.114 µM and over 10 µM.
Regarding `Cc1cc([C@@H](C)Nc2ccccc2C(=O)O)c2nc(N3Cc4ncsc4C3)c(C)c(=O)n2c1` [Example 11-304, (R)-2-((1-(2-(4,6-dihydro-5H-pyrrolo[3,4-d]thiazol-5-yl)-3,7-dimethyl-4-oxo-4H-pyrido[1,2-a]pyrimidin-9-yl)ethyl)amino)benzoic acid], the IC50 is 0.197 µM in test [1] and over 10 µM in test [2].
For `Cc1cc([C@@H](C)Nc2ccccc2C(=O)O)c2nc(N3CCc4sc(C)nc4C3)c(C#N)c(=O)n2c1` [Example 11-305, (R)-2-((1-(3-cyano-7-methyl-2-(2-methyl-6,7-dihydrothiazolo[4,5-c]pyridin-5(4H)-yl)-4-oxo-4H-pyrido[1,2-a]pyrimidin-9-yl)ethyl)amino)benzoic acid] the same measures were 0.501 µM and over 10 µM.
Take `Cc1cc([C@@H](C)Nc2ccccc2C(=O)O)c2nc(N3CCc4scnc4C3)c(C#N)c(=O)n2c1` [Example 11-306, (R)-2-((1-(3-cyano-2-(6,7-dihydrothiazolo[4,5-c]pyridin-5(4H)-yl)-7-methyl-4-oxo-4H-pyrido[1,2-a]pyrimidin-9-yl)ethyl)amino)benzoic acid]: the IC50 was 0.557 µM in test [1] and over 10 µM in test [2].
For `Cc1cc([C@@H](C)Nc2cccc(F)c2C(=O)O)c2nc(N3Cc4ccccc4C3)c(C#N)c(=O)n2c1` [Example 11-307, (R)-2-((1-(3-cyano-2-(isoindolin-2-yl)-7-methyl-4-oxo-4H-pyrido[1,2-a]pyrimidin-9-yl)ethyl)amino)-6-fluorobenzoic acid] the same measures were 0.379 µM and over 10 µM.
For `Cc1cc([C@@H](C)Nc2ccccc2C(=O)O)c2nc(NCC(C)C)c(C#N)c(=O)n2c1` [Example 11-308, (R)-2-((1-(3-cyano-2-(isobutylamino)-7-methyl-4-oxo-4H-pyrido[1,2-a]pyrimidin-9-yl)ethyl)amino)benzoic acid] the same measures were 0.121 µM and over 10 µM.
Regarding `Cc1cc([C@@H](C)Nc2ccccc2C(=O)O)c2nc(NCC(C)C)c(C)c(=O)n2c1` [Example 11-309, (R)-2-((1-(2-(isobutylamino)-3,7-dimethyl-4-oxo-4H-pyrido[1,2-a]pyrimidin-9-yl)ethyl)amino)benzoic acid], the IC50 in test [1] is 0.313 µM; in test [2], over 10 µM.
For `Cc1cc([C@@H](C)Nc2ccc(C#N)cc2C(=O)O)c2nc(N3Cc4ccccc4C3)c(C)c(=O)n2c1` [Example 11-310, (R)-5-cyano-2-((1-(2-(isoindolin-2-yl)-3,7-dimethyl-4-oxo-4H-pyrido[1,2-a]pyrimidin-9-yl)ethyl)amino)benzoic acid] the same measures were 0.634 µM and over 10 µM.
Regarding `Cc1cc([C@@H](C)Nc2ccccc2C(=O)O)c2nc(N3CCC(N(C)C)CC3)c(C)c(=O)n2c1` [Example 11-311, (R)-2-((1-(2-(4-(dimethylamino)piperidin-1-yl)-3,7-dimethyl-4-oxo-4H-pyrido[1,2-a]pyrimidin-9-yl)ethyl)amino)benzoic acid], the half-inhibitory concentration (IC50) in test [1] is 3.97 µM; in test [2], over 10 µM.
For `Cc1cc([C@@H](C)Nc2ccccc2C(=O)O)c2nc(N3CCC(O)CC3)c(C#N)c(=O)n2c1` [Example 11-312, (R)-2-((1-(3-cyano-2-(4-hydroxypiperidin-1-yl)-7-methyl-4-oxo-4H-pyrido[1,2-a]pyrimidin-9-yl)ethyl)amino)benzoic acid] the same measures were 5.08 µM and over 10 µM.
Turning to `Cc1cc([C@@H](C)Nc2ccccc2C(=O)O)c2nc(N3CCC(N(C)C)CC3)c(C#N)c(=O)n2c1` [Example 11-313, (R)-2-((1-(3-cyano-2-(4-(dimethylamino)piperidin-1-yl)-7-methyl-4-oxo-4H-pyrido[1,2-a]pyrimidin-9-yl)ethyl)amino)benzoic acid], the IC50 in test [1] and in test [2] was over 10 µM in each case.
On to `Cc1cc([C@@H](C)Nc2ccccc2C(=O)O)c2nc(N3CCC(C)CC3)c(C#N)c(=O)n2c1` [Example 11-314, (R)-2-((1-(3-cyano-7-methyl-2-(4-methylpiperidin-1-yl)-4-oxo-4H-pyrido[1,2-a]pyrimidin-9-yl)ethyl)amino)benzoic acid], for which the IC50 in test [1] is 0.146 µM; in test [2], over 10 µM.
For `Cc1cc(C(=O)NC2CCCCC2C(=O)O)c2nc(N3CCCCC3)c(C#N)c(=O)n2c1` (centres unmarked) [Example 11-315, 2-(3-cyano-7-methyl-4-oxo-2-(piperidin-1-yl)-4H-pyrido[1,2-a]pyrimidine-9-carboxamido)cyclohexane-1-carboxylic acid] the same measures were over 10 µM and over 10 µM.
In the case of `Cc1cc(C(=O)NC2(CC(=O)O)CCC2)c2nc(N3CCCCC3)c(C#N)c(=O)n2c1` [Example 11-316, 2-(1-(3-cyano-7-methyl-4-oxo-2-(piperidin-1-yl)-4H-pyrido[1,2-a]pyrimidine-9-carboxamido)cyclobutyl)acetic acid], the 50% inhibitory concentration (IC50) in test [1] and in test [2] was over 10 µM throughout.
As for `Cc1cc([C@@H](C)NC(=O)C2(C(=O)O)CCC2)c2nc(N3CCCCC3)c(C#N)c(=O)n2c1` [Example 11-317, (R)-1-((1-(3-cyano-7-methyl-4-oxo-2-(piperidin-1-yl)-4H-pyrido[1,2-a]pyrimidin-9-yl)ethyl)carbamoyl)cyclobutane-1-carboxylic acid], the IC50 in test [1] and in test [2] was over 10 µM throughout.
As to `Cc1cc([C@@H](C)Nc2ccccc2C(=O)O)c2nc(N3CCOCC3)c(C#N)c(=O)n2c1` [Example 11-318, (R)-2-((1-(3-cyano-7-methyl-2-morpholino-4-oxo-4H-pyrido[1,2-a]pyrimidin-9-yl)ethyl)amino)benzoic acid], the IC50 in test [1] was 0.274 µM; in test [2], over 10 µM.
As to `Cc1cc([C@@H](C)Nc2ccccc2C(=O)O)c2nc(N3CCCCCC3)c(C#N)c(=O)n2c1` [Example 11-319, (R)-2-((1-(2-(azepan-1-yl)-3-cyano-7-methyl-4-oxo-4H-pyrido[1,2-a]pyrimidin-9-yl)ethyl)amino)benzoic acid], the values for the IC50 in test [1] and in test [2] were 0.162 µM and over 10 µM, respectively.
For the molecule `CCN(CC)c1nc2c([C@@H](C)Nc3ccccc3C(=O)O)cc(C)cn2c(=O)c1C#N` [Example 11-320, (R)-2-((1-(3-cyano-2-(diethylamino)-7-methyl-4-oxo-4H-pyrido[1,2-a]pyrimidin-9-yl)ethyl)amino)benzoic acid], the IC50 is 0.539 µM in test [1] and over 10 µM in test [2].

As usually defined, the IC50 is the point on the concentration scale where inhibition reaches its midpoint.

The values above are taken from patent US20260078120A1, “SUBSTITUTED PYRIDOPYRIMIDINONES” (MIRATI THERAPEUTICS, INC., priority 2022, published 2026).
